The values below are quoted from earlier work in patent US20220401207A1, “DEVICES, SYSTEMS, AND METHODS FOR TREATMENT OF DUCT OCCLUSION” (Purdue Research Foundation, priority 2021, published 2022).

Series [1] concerns bacteria isolated from bile. The following applies: number of bile cultures, N-acetyl-cysteine n = 12, co-trimoxazole n = 10.
The next series relates to cancerous mass. The following applies: drug-eluting stent, drug comprises gemcitabine.
In another series the test system is gall bladder. The conditions noted are these: opossums, CCK infused into the body.

`CC(=O)N[C@@H](CS)C(=O)O` [N-acetyl-cysteine]: in series [1], the “Bile samples cultured with Citrobacter freundii” value is reported as 1, the “Bile samples cultured with Clostridium species” value is reported as 5, the “Bile samples cultured with Enterobacter species” value is 6 and the “Bile samples cultured with Enterococcus species” value is listed as 10. In series [1], the “Bile samples cultured with K. oxytoca” value was 5, the “Bile samples cultured with K. pneumonia” value is 3, the “Bile samples cultured with Klebsiella species” value was 8 and the “Bile samples cultured with Proteus species” value was 1. In series [1] (**p < 0.05), the “Bile samples cultured with Escherichia coli” value was 6 and the “Bile samples cultured with Streptococcus species” value was 4.

In the case of `Nc1ccn([C@@H]2O[C@H](CO)[C@@H](O)C2(F)F)c(=O)n1` [gemcitabine], in the series on cancerous mass, the “Life span of subjects” value is “increased life spans” and the Tumor size result is recorded as “decreased tumor size”.

For Co-trimoxazole, in series [1], the “Bile samples cultured with Bacteroides fragilis” value is recorded as 1, the “Bile samples cultured with Candida species” value is reported as 2, the “Bile samples cultured with Clostridium species” value is recorded as 2 and the “Bile samples cultured with Enterobacter species” value is 2. Besides, in series [1], the “Bile samples cultured with Enterococcus species” value is 6, the “Bile samples cultured with K. oxytoca” value was 1, the “Bile samples cultured with K. pneumonia” value is 4 and the “Bile samples cultured with Klebsiella species” value is 5. Besides, in series [1], the “Bile samples cultured with Pseudomonas aeruginosa” value was 1 and the “Bile samples cultured with Staphylococcus epidermidis” value is given as 1.

On to cholecystokinin [CCK], for which the “Compliance (and thus the pressure) of the gall bladder” value in the series on gall bladder was “drops”.
